According to patent US4543254A, “Antiphlogistic/antipyretic/analgesic agents containing theobromine or theophylline derivatives as active ingredient” (Eisai Co., Ltd., priority 1982, dated 1985):
Read-outs that look alike come from different tables or passages of the source.

Key:
[1] = Antipyretic activity: dry yeast-induced fever (rats); format: in vivo, SD male rats; conditions: Rattus norvegicus, po, read-out: ED, effective dose for reducing the fever by more than 1° C. when the compound action is at the peak
Method: A 2% suspension of dry yeast was injected sub-Cutaneously to SD male rats of 250 to 300 g body weight in an amount of 2 ml/animal to cause a fever, and 4 hours later, the compounds of this invention and control drugs were administered orally. The rectal temerature of each rat was measured periodically, and the dosage of each compound required to reduce the fever by more than 1° C. at the peak of its activity was determined.

[2] = Analgesic activity: bradykinin-induced pain response (rats); format: in vivo, SD male rats; conditions: Rattus norvegicus, po, read-out: Analgesic activity ED50
Method: (B) Bradykinin-induced pain response^3,4
A polyethylene tube was inserted into a common right carotid artery of SD male rats (250 to 350 g) and 0.5 microngram per 0.1 ml of bradykinin was injected into the artery through said tube. Response induced by bradykinin such as flexin of the right forelimb, dextro-rotation of the head and rearing were considered as being indices of pain response, and the analgesic action of each test compound was determined by observing its inhibition of responses such symptoms.
(3) T. Abe, T. Kaneko and H. Takagi: Japan Pharm. Soc. Bul., 67, 9-14 (1971)
(4) G. F. Blane: J. Pharma. Pharmacol., 19, 367 (1967)

[3] = in vivo; conditions: po, p.o., read-out: Safety margin (LD50/ED50)
Method: Ten mice were used for each dose and morality was determined for 3 days after administration of each test compound of the invention. In the case of the rats, 5 rats were used for each dose and morality was determined 7 days after administrations.

[4] = Antiphlogistic activity: carrageenin paw edema (rats); format: in vivo, Wistar rats; conditions: Rattus norvegicus, po, 3 hours
Method: (3) Antiphlogistic activity^5
Each test compound of this invention was administered orally to Wistar rats of about 300 g body weight, and 30 minutes later 0.05 ml of a 1% carrageenin solution was injected into a paw of each rat. After three hours, the paw volume was measured to determine the degree of edema formation and the 30% effective dose (ED30) was calculated from the inhibition rate relative to a control group.
(5) R. Vinegar et al: J. Pharmacol. Exp. Ther., 166, 96 (1969)

[5] = Analgesic activity: acetic acid writhing method (mice); format: in vivo, ddy-strain male mice; conditions: Mus musculus, po
Method: (a) Acetic acid writhing method^1
A 0.7% acetic acid solution was injected intraperitoneally to ddy-strain male mice (20 to 25 g) in an amount of 0.1 ml per 10 g mouse body weight to cause a writhing syndrome typified by stretching of the hind legs. The inhibitory action of each test compound against said symptom was observed as a measure of the analgesic activity of the compound.
(1) Hendershot, L. C. and Forsaith, J.: J. Pharmacol. Exp. Ther., 125, 237 (1959).
(2) Litchfield, Jr., J. T. and Wilcoxon, F.: J. Pharmacol. Exp. Ther., 96, 99 (1949).

[6] = tested on: SD male rats; conditions: p.o., control drugs, given in Japan National Formulary, 6th Ed. (1982); cited from earlier work
[7] = tested on: ddy male mice; conditions: p.o., control drugs, given in Japan National Formulary, 6th Ed. (1982); cited from earlier work
[8] = rats, p.o., bradykinin-induced pain

SMILES | minimal effective dose [1] [mg/kg] | ED50 [2, 8] [mg/kg] | selectivity ratio ([3]; mouse, mice) | selectivity ratio ([3]; rat, rats) | ED30 [4] [mg/kg] | ED50 [5] [mg/kg] | Acute toxicity LD50 [6] | Acute toxicity LD50 [7] [mg/kg] | ED50 [2] [mg/kg]
Cn1c(=O)c2c(ncn2CCCCCN2CCN(c3cccc(C(F)(F)F)c3)CC2)n(C)c1=O [Compound F] | 10 | 63 | ≥ 30 | 10.5 | 25 | 27.1 | – | – | –
Cn1c(=O)c2c(ncn2CCCCN2CCN(c3ccc(F)cc3)CC2)n(C)c1=O [Compound A] | 10 | 47 | 34 | 7.5 to 10.6 | 10 | 10 | – | – | –
COc1cc(C)nc(-n2nc(C)cc2OC)n1 [Control drug I, 4-methoxy-2-(5-methoxy-3-methylpyrazol-1-yl)-6-methylpyrimidine, reference compound] | 40 | ≥ 160 | 4.3 | ≤ 3 | – | 240 | 526 mg/kg | – | –
O=C(Cn1c(=O)sc2ccc(Cl)cc21)N1CCN(CCO)CC1 [Control drug II, 4-((5-chloro-2-oxo-3(2H)-benzothiazolyl)acetyl)-1-piperazineethanol, reference compound] | 40 | ≥ 160 | 8.5 | ≤ 23 | – | 66 | 3,600 mg/kg | 564 | –
Cc1cccc(N2CCN(CCn3c(=O)c4c(ncn4C)n(C)c3=O)CC2)c1C [Compound B', 1-(2-(4-(2,3-dimethylphenyl)piperazinyl-(1))-ethyl)theobromine.2HCl] | – | 20 | 230 | ≥ 100 | – | 2.6 | – | – | –
OC(CN1CCCCC1)c1cc(-c2ccccc2)on1 (stereo not shown) [Control drug III, 3-(1-hydroxy-2-piperadinoethyl)-5-phenylisoxazole, reference compound] | 160 | 160 | 5.1 | 12 | – | 120 | 1,978 mg/kg | 612 | –
Cc1cccc(N2CCN(CCCCCn3c(=O)c4c(ncn4C)n(C)c3=O)CC2)c1 [Compound G', 1-(5-(4-m-methylphenylpiperazinyl-(1))-n-pentyl)theobromine.2HCl] | – | – | 22 | – | 25 | 13.5 | – | – | –
Cn1cnc2c1c(=O)n(CCCN1CCN(c3ccccc3Cl)CC1)c(=O)n2C [Compound C', 1-(3-(4-o-chlorophenylpiperazinyl-(1))-n-propyl)theobromine.2HCl] | – | – | 61 | – | 10 | 3.3 | – | – | –
Cn1c(=O)c2c(ncn2CCCCN2CCN(c3ccc(Cl)cc3)CC2)n(C)c1=O [Compound D] | 40 | – | 22 | 7.6 | 25 | 26 | – | – | 68
Cc1ccc(N2CCN(CCCn3cnc4c3c(=O)n(C)c(=O)n4C)CC2)cc1C [Compound C] | 10 | 57 | > 60 | 13.6 | – | 13.3 | – | – | –
Cn1cnc2c1c(=O)n(CCCN1CCN(c3ccc(Cl)c(Cl)c3)CC1)c(=O)n2C [Compound A', 1-(3-(4-(3,4-dichlorophenyl)piperazinyl-(1))-n-propyl)theobromine] | 40 | 40 | – | – | 25 | 7.2 | – | – | –
Cn1c(=O)c2c(ncn2CCCCCN2CCN(c3ccc(Cl)cc3)CC2)n(C)c1=O [Compound B] | 40 | 40 | 51 | 8.8 to 12.5 | 50 | 13.8 | – | – | –
Cn1cnc2c1c(=O)n(CCCCN1CCN(c3ccc(F)cc3)CC1)c(=O)n2C [Compound E', 1-(4-(4-p-fluorophenylpiperazinyl-(1))-n-butyl)theobromie.2HCl] | – | – | 26 | – | 25 | 7.8 | – | – | –
COc1ccccc1N1CCN(CCCCn2c(=O)c3c(ncn3C)n(C)c2=O)CC1 [Compound D', 1-(4-(4-o-methoxyphenylpiperazinyl-(1))-n-butyl)theobromine.2HCl] | – | – | 130 to 258 | – | – | 3.1 | – | – | –
Cn1cnc2c1c(=O)n(CCCCN1CCN(c3ccc(Cl)c(Cl)c3)CC1)c(=O)n2C [Compound F', 1-(4-(4-(3,4-dichlorophenyl)piperazinyl-(1))-n-butyl)theobromine.2HCl] | – | – | 51 to 103 | – | – | 7.8 | – | – | –
